This passage reports IC50 results from patent US9776979B2, “EBI2 modulators” (Sanford-Burnham Medical Research Institute, priority 2013, dated 2017).

Chain of EBI2 (P32249 whole entry): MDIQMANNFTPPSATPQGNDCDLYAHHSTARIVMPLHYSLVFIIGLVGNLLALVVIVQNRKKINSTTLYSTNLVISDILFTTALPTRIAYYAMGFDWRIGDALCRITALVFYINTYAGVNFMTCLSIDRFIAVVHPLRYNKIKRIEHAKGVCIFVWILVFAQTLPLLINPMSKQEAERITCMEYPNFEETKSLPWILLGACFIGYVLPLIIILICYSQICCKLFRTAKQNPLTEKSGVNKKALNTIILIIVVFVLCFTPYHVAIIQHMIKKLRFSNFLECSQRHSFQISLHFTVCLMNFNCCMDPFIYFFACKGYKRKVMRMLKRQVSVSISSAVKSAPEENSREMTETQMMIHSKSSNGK

The experiment addresses EBI2 (Homo sapiens, UniProt P32249). The experiment is described as follows: Cell-based luminescent assay (EBI2 modulation). As to conditions: cell-based luminescence; 7a,25-OHC final assay concentration 80 nM; 60 minutes incubation; read-out: IC50. In outline: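 Cells plated overnight at 37° C, then exposed to compound at 4-5 uM final with 80 nM 7a,25-OHC agonist for 60 min at 37° C. Luminescence read after 60 min detection at 25° C in the dark; values normalized to neutral and stimulator controls and plate-pattern corrected.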
Usually IC50 stands for the point on the concentration scale where inhibition reaches its midpoint. For the compound `O=C(C=Cc1ccc2c(c1)OCO2)N1CCN(C(=O)c2ccc(-c3nnn[nH]3)cc2)CC1` [Compound C457, 3-(2H-benzo[3,4-d]1,3-dioxolan-5-yl)-1-{4-[(4-(1H-1,2,3,4-tetraazol-5-yl)phenyl)carbonyl]piperazinyl}prop-2-en-1-one], the IC50 is 100 to 500 nM.
The figure for `O=C(C#Cc1ccc(Cl)c(Cl)c1)N1CCN(Cc2ccc(F)cc2)CC1` [Compound C284, 3-(3,4-dichlorophenyl)-1-{4-[(4-fluorophenyl)methyl]piperazinyl}prop-2-yn-1-one] is 100 to 500 nM; for “4-{[3,5-bis(trifluoromethyl)phenyl]carbonyl}piperazinyl 5-(trifluoromethyl)indol-2-yl ketone [Compound C330]” it is under 100 nM.
Consider `O=C(c1ccc2nc[nH]c2c1)N1CCN(C(c2ccccc2)c2ccccc2)CC1` [Compound C296, benzimidazol-5-yl 4-(diphenylmethyl)piperazinyl ketone], for which the IC50 lay in the range of 100 to 500 nM.
The figure for `O=C(C#Cc1ccccc1)N1CCN(C(c2ccccc2)c2ccccc2)CC1` [Compound C139, 1-[4-(diphenylmethyl)piperazinyl]-3-phenylprop-2-yn-1-one] is under 100 nM; for `O=C(c1cc2ccccn2n1)N1CCN(C(=O)c2cc3cc(Cl)ccc3[nH]2)CC1` [Compound C278, 5-chloroindol-2-yl 4-(8-hydropyrazolo[1,5-a]pyridin-2-ylcarbonyl)piperazinyl ketone] it is 100 to 500 nM.
Turning to `O=C(C#Cc1ccc(Cl)cc1)N1CCN(Cc2ccc(C(F)(F)F)cc2)CC1` [Compound C356, 3-(4-chlorophenyl)-1-(4-{[4-(trifluoromethyl)phenyl]methyl}piperazinyl)prop-2-yn-1-one], the IC50 is under 100 nM.
For `O=C(c1cnc2ccccc2n1)N1CCN(C(c2ccccc2)c2ccccc2)CC1` [Compound C276, 4-(diphenylmethyl)piperazinyl quinoxalin-2-yl ketone], the half-maximal inhibitory concentration (IC50) was in the range of 100 to 500 nM.
In the case of `O=C(C#Cc1ccc(C(F)(F)F)cc1)N1CCN(Cc2ccc(F)cc2)CC1` [Compound C231, 1-{4-[(4-fluorophenyl)methyl]piperazinyl}-3-[4-(trifluoromethyl)phenyl]prop-2-yn-1-one] it was under 100 nM.
As to `Cc1c(C(=O)N2CCN(C(c3ccccc3)c3ccccc3)CC2)sc2ccccc12` [Compound C185, 4-(diphenylmethyl)piperazinyl 3-methylbenzo[b]thiophen-2-yl ketone], the half-maximal inhibitory concentration (IC50) is 500 to 5000 nM.
On to `O=C(Nc1cccc(I)c1)N1CCN(C(=O)c2cc3cc(Cl)ccc3[nH]2)CC1` [Compound C474, {4-[(5-chloroindol-2-yl)carbonyl]piperazinyl}-N-(3-iodophenyl)carboxamide], for which the concentration for half-maximal inhibition (IC50) is 100 to 500 nM.
The figure for `O=C(c1cc2cc(Cl)ccc2[nH]1)N1CCC(Oc2ccc(Cl)cc2)CC1` [Compound C317, 5-chloroindol-2-yl 4-(4-chlorophenoxy)piperidyl ketone] is under 100 nM; for `O=C(c1cc2c(F)cc(F)cc2[nH]1)N1CCN(C(c2ccccc2)c2ccccc2)CC1` [Compound C263, 4,6-difluoroindol-2-yl 4-(diphenylmethyl)piperazinyl ketone] it is under 100 nM.
For “5-chloroindol-2-yl 4-{[4-(4-chlorophenyl)phenyl]sulfonyl}piperazinyl ketone [Compound C172]”, the concentration for half-maximal inhibition (IC50) was 500 to 5000 nM.
For the compound “piperazinyl 5-nitroindol-2-yl ketone [Compound C134]”, the 50% inhibitory concentration (IC50) was under 100 nM.
Regarding “(2E)-3-phenyl-1-[4-(4-pyridylmethyl)piperazinyl]prop-2-en-1-one [Compound C466]”, the IC50 fell in the range of 100 to 500 nM.
The figure for “1-{4-[(4-fluorophenyl)methyl]piperazinyl}-3-[2-(trifluoromethyl)phenyl]prop-2-yn-1-one [Compound C438]” is 100 to 500 nM; for “3-(3,5-difluorophenyl)-1-(4-{[4-fluoro-2-(trifluoromethyl)phenyl]methyl}piperazinyl)prop-2-yn-1-one [Compound C422]” it is 100 to 500 nM; for `O=C(C#Cc1cccc(Cl)c1)N1CCN(C(=O)c2ccc(C(F)(F)F)cc2)CC1` [Compound C117, 3-(3-chlorophenyl)-1-(4-{[4-(trifluoromethyl)phenyl]carbonyl}piperazinyl)prop-2-yn-1-one] it is under 100 nM.
In the case of `O=C(c1cc2cc(Cl)ccc2[nH]1)N1CCN(Cc2ccc(F)c(C(F)(F)F)c2)CC1` [Compound C420, 5-chloroindol-2-yl 4-{[4-fluoro-3-(trifluoromethyl)phenyl]methyl}piperazinyl ketone] it was 100 to 500 nM; in that of `O=C(c1cc2ccccn2n1)N1CCN(C(c2ccccc2)c2ccccc2)CC1` [Compound C478, 4-(diphenylmethyl)piperazinyl 8-hydropyrazolo[1,5-a]pyridin-2-yl ketone], 100 to 500 nM.
For the compound `O=C(C#Cc1ccc(Cl)c(Cl)c1)N1CCN(C(=O)c2ccc(C(F)(F)F)cc2)CC1` [Compound C249, 3-(3,4-dichlorophenyl)-1-(4-{[4-(trifluoromethyl)phenyl]carbonyl}piperazinyl)prop-2-yn-1-one], the IC50 is under 100 nM.
In the case of `O=C(/C=C/c1ccccc1)N1CCN(CCOc2ccc(Cl)cc2Cl)CC1` [Compound C407, (2E)-1-{4-[2-(2,4-dichlorophenoxy)ethyl]piperazinyl}-3-phenylprop-2-en-1-one], the IC50 lay within 100 to 500 nM.
The figure for `O=C(C#Cc1ccc(Br)cc1)N1CCN(C(=O)c2ccc(-c3nnn[nH]3)cc2)CC1` [Compound C149, 3-(4-bromophenyl)-1-{4-[(4-(5H-1,2,3,4-tetraazol-5-yl)phenyl)carbonyl]piperazinyl}prop-2-yn-1-one] is under 100 nM.
As to `O=C(c1cc2ccccc2o1)N1CCN(C(c2ccccc2)c2ccccc2)CC1` [Compound C87, benzo[d]furan-2-yl 4-(diphenylmethyl)piperazinyl ketone], the IC50 was under 100 nM.
Consider `O=C(C#Cc1ccc(F)cc1F)N1CCN(C(=O)c2ccc(C(F)(F)F)cc2)CC1` [Compound C166, 3-(2,4-difluorophenyl)-1-(4-{[4-(trifluoromethyl)phenyl]carbonyl}piperazinyl)prop-2-yn-1-one], for which the IC50 was in the range of 500 to 5000 nM.
Consider `O=C(c1cc2ccc(Cl)cc2[nH]1)N1CCN(C(=O)c2ccc(F)cc2C(F)(F)F)CC1` [Compound C447, 6-chloroindol-2-yl 4-{[4-fluoro-2-(trifluoromethyl)phenyl]carbonyl}piperazinyl ketone], for which the half-maximal inhibitory concentration (IC50) lay within 100 to 500 nM.
For the compound `O=C(C#Cc1ccccc1C(F)(F)F)N1CCN(Cc2ccc(C(F)(F)F)cc2)CC1` [Compound C475, 3-[2-(trifluoromethyl)phenyl]-1-(4-{[4-(trifluoromethyl)phenyl]methyl}piperazinyl)prop-2-yn-1-one], the IC50 was in the range of 100 to 500 nM.
With `O=C(/C=C/c1ccccc1)N1CCN(Cc2ccc([N+](=O)[O-])cc2)CC1` [Compound C161, (2E)-1-{4-[(4-nitrophenyl)methyl]piperazinyl}-3-phenylprop-2-en-1-one], the half-maximal inhibitory concentration (IC50) was under 100 nM.
Regarding `O=C(c1ccc(Cl)cc1)N1CCN(C(=O)c2cc3cc(Cl)ccc3[nH]2)CC1` [Compound C89, 5-chloroindol-2-yl 4-[(4-chlorophenyl)carbonyl]piperazinyl ketone], the IC50 is under 100 nM.
In the case of `O=C(c1cc2cc(Cl)ccc2[nH]1)N1CCN(Cc2ccc(F)cc2F)CC1` [Compound C427, 4-[(2,4-difluorophenyl)methyl]piperazinyl 5-chloroindol-2-yl ketone], the half-inhibitory concentration (IC50) fell in the range of 100 to 500 nM.
On to `O=C(c1ccc(Br)cc1)N1CCN(C(=O)c2ccc3ccccc3c2)CC1` [Compound C381, 4-bromophenyl 4-(2-naphthylcarbonyl)piperazinyl ketone], for which the IC50 is under 100 nM.
The figure for `Cc1ccc2[nH]c(C(=O)N3CCN(Cc4ccc(F)cc4)CC3)cc2c1` [Compound C219, 4-[(4-fluorophenyl)methyl]piperazinyl 5-methylindol-2-yl ketone] is under 100 nM; for `O=C(/C=C/c1ccc(F)cc1)N1CCN(C(c2ccccc2)c2ccccc2)CC1` [Compound C68, (2E)-1-[4-(diphenylmethyl)piperazinyl]-3-(4-fluorophenyl)prop-2-en-1-one] it is under 100 nM; for `COC(=O)c1ccc(C(=O)N2CCN(C(=O)c3cc4cc(Br)ccc4[nH]3)CC2)cc1` [Compound C81, methyl 4-({4-[(5-bromoindol-2-yl)carbonyl]piperazinyl}carbonyl)benzoate] it is under 100 nM.
As to `CC(C)(C)c1ccc(S(=O)(=O)N2CCN(C(=O)/C=C/c3ccc(F)cc3)CC2)cc1` [Compound C202, (2E)-1-(4-{[4-(tert-butyl)phenyl]sulfonyl}piperazinyl)-3-(4-fluorophenyl)prop-2-en-1-one], the half-maximal inhibitory concentration (IC50) was under 100 nM.
For the compound “4-(diphenylmethyl)piperazinyl pyrrolo[2,3-c]pyridin-2-yl ketone [Compound C431]”, the concentration for half-maximal inhibition (IC50) was 100 to 500 nM.
In the case of `O=C(/C=C/c1ccc(Cl)c(Cl)c1)N1CCN(C(=O)c2ccc(F)cc2)CC1` [Compound C20, (2E)-3-(3,4-dichlorophenyl)-1-{4-[(4-fluorophenyl)carbonyl]piperazinyl}prop-2-en-1-one], the concentration for half-maximal inhibition (IC50) is under 100 nM.
The figure for “(2E)-1-{4-[(3,5-dimethylphenyl)methyl]piperazinyl}-3-phenylprop-2-en-1-one [Compound C340]” is under 100 nM; for `O=C(/C=C/c1ccccc1)N1CCN(Cc2ccc(F)cc2)CC1` [Compound C248, (2E)-1-{4-[(4-fluorophenyl)methyl]piperazinyl}-3-phenylprop-2-en-1-one] it is under 100 nM; for `Cc1ccc2c(c1)cc(C(=O)N1CCN(C(c3ccccc3)c3ccccc3)CC1)n2C` [Compound C105, 1,5-dimethylindol-2-yl 4-(diphenylmethyl)piperazinyl ketone] it is under 100 nM.
The figure for `O=C(C#Cc1ccc(Cl)c(Cl)c1)N1CCN(C(=O)c2ccc(F)cc2C(F)(F)F)CC1` [Compound C437, 3-(3,4-dichlorophenyl)-1-(4-{[4-fluoro-2-(trifluoromethyl)phenyl]carbonyl}piperazinyl)prop-2-yn-1-one] is 100 to 500 nM.
